From PubChem BioAssay AID248 (DTP/NCI, 2004)
Where “and” joins values, the source holds several entries; their conditions need not be identical. Equal values may be shown once. Toxic doses and inconclusive results are not listed. No stated cut-off is given here; in the data, active means T/C of 150% or more; inactive means T/C below 125%.

Tested on: L1210 leukemia ip in BDF1 mice, survival T/C
Experiment: NCI In Vivo Anticancer Drug Screen. Data for tumor model L1210 Leukemia (intraperitoneal) in B6D2F1 (BDF1) mice
Settings: endpoint: mean survival time, higher = longer survival
Method in brief: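 Tumor was transplanted into mice, which were then dosed with test compound or vehicle alone. Survival was recorded for each group, and the treated figure was expressed relative to the control figure.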

[1] = dose: 50.0 mg/kg/injection, schedule: Q01DX001 (ip), vehicle: saline
[2] = dose: 100.0 mg/kg/injection, schedule: Q01DX009 (ip), vehicle: saline
[3] = dose: 200.0 mg/kg/injection, schedule: Q01DX009 (ip), vehicle: saline
[4] = dose: 400.0 mg/kg/injection, schedule: Q01DX009 (ip), vehicle: saline
[5] = dose: 100.0 mg/kg/injection, schedule: Q01DX001 (ip), vehicle: saline
[6] = dose: 200.0 mg/kg/injection, schedule: Q01DX001 (ip), vehicle: saline
[7] = dose: 400.0 mg/kg/injection, schedule: Q01DX001 (ip), vehicle: saline
[8] = dose: 100.0 mg/kg/injection, schedule: Q01DX009 (ip), vehicle: Klucel (hydroxypropylcellulose) (HPC)
[9] = dose: 100.0 mg/kg/injection, schedule: Q04DX002 (ip), vehicle: Klucel (hydroxypropylcellulose) (HPC)
[10] = dose: 200.0 mg/kg/injection, schedule: Q04DX002 (ip), vehicle: Klucel (hydroxypropylcellulose) (HPC)
[11] = dose: 400.0 mg/kg/injection, schedule: Q04DX002 (ip), vehicle: Klucel (hydroxypropylcellulose) (HPC)
[12] = dose: 100.0 mg/kg/injection, schedule: Q01DX001 (ip), vehicle: Klucel (hydroxypropylcellulose) (HPC)
[13] = dose: 200.0 mg/kg/injection, schedule: Q01DX001 (ip), vehicle: Klucel (hydroxypropylcellulose) (HPC)
[14] = dose: 400.0 mg/kg/injection, schedule: Q01DX001 (ip), vehicle: Klucel (hydroxypropylcellulose) (HPC)
[15] = dose: 100.0 mg/kg/injection, schedule: Q01DX009 (ip), vehicle: saline with Tween-80
[16] = dose: 100.0 mg/kg/injection, schedule: Q01DX001 (ip), vehicle: saline with Tween-80
[17] = dose: 200.0 mg/kg/injection, schedule: Q01DX001 (ip), vehicle: saline with Tween-80

Measured: T/C

CCN(CC)C(=O)C(N)Cc1ccc(OC)c(N(CCCl)CCCl)c1 (centres undefined)
inactive: dose: 6.0 mg/kg/injection, schedule: Q01DX009 (ip), vehicle: saline 103 % of control | dose: 10.0 mg/kg/injection, schedule: Q01DX009 (ip), vehicle: saline 103 % of control | dose: 14.0 mg/kg/injection, schedule: Q01DX009 (ip), vehicle: saline 112 % of control | dose: 22.0 mg/kg/injection, schedule: Q01DX009 (ip), vehicle: saline 105 % of control | dose: 33.0 mg/kg/injection, schedule: Q01DX001 (ip), vehicle: saline 123 % of control | dose: 33.0 mg/kg/injection, schedule: Q01DX009 (ip), vehicle: saline 108 % of control | [1] 123 % of control | dose: 50.0 mg/kg/injection, schedule: Q01DX009 (ip), vehicle: carboxymethylcellulose (CMC) 104 % of control | dose: 50.0 mg/kg/injection, schedule: Q01DX009 (ip), vehicle: saline 116 % of control | dose: 75.0 mg/kg/injection, schedule: Q01DX009 (ip), vehicle: carboxymethylcellulose (CMC) 103 % of control | dose: 112.0 mg/kg/injection, schedule: Q01DX001 (ip), vehicle: saline 113 % of control | dose: 112.5 mg/kg/injection, schedule: Q01DX001 (ip), vehicle: carboxymethylcellulose (CMC) 116 % of control | dose: 150.0 mg/kg/injection, schedule: Q01DX001 (ip), vehicle: carboxymethylcellulose (CMC) 117 % of control

CC1(N)CCOC1=O (centres undefined)
inactive: [2] 93 % of control | [3] 93 % of control | [4] 93 % of control

O=C(Cc1ccccc1)c1ccc(O)cc1O
inactive: [1] 104 % of control | [5] 104 % of control | dose: 100.0 mg/kg/injection, schedule: Q04DX003 (ip), vehicle: gum acacia 113 % of control | [6] 102 % of control | dose: 200.0 mg/kg/injection, schedule: Q04DX003 (ip), vehicle: gum acacia 98 % of control | [7] 102 % of control | dose: 400.0 mg/kg/injection, schedule: Q04DX003 (ip), vehicle: gum acacia 101 % of control

O=C(N/N=C/c1ccc(N(CCCl)CCCl)cc1)c1ccc(C(=O)N/N=C/c2ccc(N(CCCl)CCCl)cc2)cc1
inactive: dose: 50.0 mg/kg/injection, schedule: Q01DX009 (ip), vehicle: Klucel (hydroxypropylcellulose) (HPC) 98 % of control | [8] 90 % of control | dose: 100.0 mg/kg/injection, schedule: Q04DX003 (ip), vehicle: Klucel (hydroxypropylcellulose) (HPC) 95 % of control | dose: 200.0 mg/kg/injection, schedule: Q04DX003 (ip), vehicle: Klucel (hydroxypropylcellulose) (HPC) 100 % of control

O=C(Nc1cc(C(F)(F)F)ccc1Cl)Oc1ccc(F)cc1Cl
inactive: [8] 97 % of control and 101 % of control | [9] 95 % of control and 100 % of control | dose: 200.0 mg/kg/injection, schedule: Q01DX009 (ip), vehicle: Klucel (hydroxypropylcellulose) (HPC) 101 % of control and 108 % of control | [10] 100 % of control and 104 % of control | dose: 400.0 mg/kg/injection, schedule: Q01DX009 (ip), vehicle: Klucel (hydroxypropylcellulose) (HPC) 108 % of control and 89 % of control | [11] 103 % of control and 110 % of control

O=C(C(CO)C(CO)C(=O)N1Cc2cc3ccccc3nc2C1)N1Cc2cc3ccccc3nc2C1 (centres undefined)
inactive: [12] 103 % of control | [13] 95 % of control | [14] 92 % of control

CC(=O)Nc1ccccc1O
inactive: dose: 50.0 mg/kg/injection, schedule: Q04DX002 (ip), vehicle: Klucel (hydroxypropylcellulose) (HPC) 94 % of control | dose: 75.0 mg/kg/injection, schedule: Q01DX009 (ip), vehicle: saline 95 % of control | [9] 94 % of control and 102 % of control | dose: 150.0 mg/kg/injection, schedule: Q01DX009 (ip), vehicle: saline 113 % of control | [10] 102 % of control | dose: 300.0 mg/kg/injection, schedule: Q01DX009 (ip), vehicle: saline 89 % of control | [11] 113 % of control

CCCCCCCCCCCCC(=O)N(CCC)CCC
inactive: [9] 98 % of control | [10] 98 % of control | [11] 102 % of control

Clc1ccc(CC[PH+]2CC=CC2)cc1.Clc1ccc(CC[PH+]2CC=CC2)cc1.[Cl][Ni][Cl]
inactive: dose: 100.0 mg/kg/injection, schedule: Q04DX002 (ip), vehicle: saline with Tween-80 107 % of control

C=CCOC(=O)CCCCC(=O)OCC=C
inactive: [15] 94 % of control

O=[N+]([O-])c1ccc(Sc2cccs2)c([N+](=O)[O-])c1
inactive: [15] 97 % of control | dose: 100.0 mg/kg/injection, schedule: Q04DX003 (ip), vehicle: saline with Tween-80 105 % of control | dose: 200.0 mg/kg/injection, schedule: Q01DX009 (ip), vehicle: saline with Tween-80 100 % of control | dose: 200.0 mg/kg/injection, schedule: Q04DX003 (ip), vehicle: saline with Tween-80 93 % of control | dose: 400.0 mg/kg/injection, schedule: Q01DX009 (ip), vehicle: saline with Tween-80 102 % of control | dose: 400.0 mg/kg/injection, schedule: Q04DX003 (ip), vehicle: saline with Tween-80 93 % of control

c1ccc(CCNc2ccc(NCCc3ccccc3)cc2)cc1
inactive: dose: 75.0 mg/kg/injection, schedule: Q01DX001 (ip), vehicle: Klucel (hydroxypropylcellulose) (HPC) 92 % of control | dose: 75.0 mg/kg/injection, schedule: Q01DX009 (ip), vehicle: Klucel (hydroxypropylcellulose) (HPC) 97 % of control | dose: 150.0 mg/kg/injection, schedule: Q01DX001 (ip), vehicle: Klucel (hydroxypropylcellulose) (HPC) 106 % of control | dose: 150.0 mg/kg/injection, schedule: Q01DX009 (ip), vehicle: Klucel (hydroxypropylcellulose) (HPC) 100 % of control | dose: 300.0 mg/kg/injection, schedule: Q01DX001 (ip), vehicle: Klucel (hydroxypropylcellulose) (HPC) 97 % of control | dose: 300.0 mg/kg/injection, schedule: Q01DX009 (ip), vehicle: Klucel (hydroxypropylcellulose) (HPC) 106 % of control

CCC(C)C(CCN1CCCCC1)(CNC(=O)CN(CC)CC)c1cccc2ccccc12 (centres undefined)
inactive: dose: 100.0 mg/kg/injection, schedule: Q04DX003 (ip), vehicle: saline 103 % of control | dose: 200.0 mg/kg/injection, schedule: Q04DX003 (ip), vehicle: saline 103 % of control

COC1OC(CO)C(N(C)C(C)=O)C1O (centres undefined)
inactive: [5] 94 % of control | [6] 103 % of control | [7] 97 % of control

COC(=O)CCC(C)(C)[N+](=O)[O-]
inactive: [2] 113 % of control | [3] 104 % of control | [4] 102 % of control

CCC1(O)C(=O)OCc2c1cc(C(=O)OC)n(C)c2=O (centres undefined)
inactive: dose: 25.0 mg/kg/injection, schedule: Q01DX001 (ip), vehicle: saline with Tween-80 97 % of control | dose: 50.0 mg/kg/injection, schedule: Q01DX001 (ip), vehicle: saline with Tween-80 95 % of control | [16] 97 % of control | [17] 98 % of control

CC12OC1(C)C1(CO1)C1(C)OC1(C)C2=O (centres undefined)
inactive: [12] 94 % of control | [13] 97 % of control | [14] 87 % of control

COC1CCC2=C(C1)C(=O)CC1c3ccccc3CCN21 (centres undefined) (tested in a mixture with another compound)
inactive: dose: 6.25 mg/kg/injection, schedule: Q04DX003 (ip), vehicle: saline with Tween-80 97 % of control | dose: 12.5 mg/kg/injection, schedule: Q04DX003 (ip), vehicle: saline with Tween-80 107 % of control | dose: 25.0 mg/kg/injection, schedule: Q04DX003 (ip), vehicle: saline with Tween-80 102 % of control

CC1=Nc2c(c(C(C)(C)C)c3nc(C)oc3c2C(C)(C)C)C1
inactive: [16] 97 % of control | [17] 94 % of control | dose: 400.0 mg/kg/injection, schedule: Q01DX001 (ip), vehicle: saline with Tween-80 94 % of control

CC(=O)c1ccccc1O.CO.CO.[Cl][Nb][Cl]
inactive: dose: 75.0 mg/kg/injection, schedule: Q01DX001 (ip), vehicle: saline 93 % of control | dose: 150.0 mg/kg/injection, schedule: Q01DX001 (ip), vehicle: saline 90 % of control | dose: 300.0 mg/kg/injection, schedule: Q01DX001 (ip), vehicle: saline 90 % of control
